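Test compounds were applied to cells in 96-well plates for 48 hours at 5 doses. GI50 = concentration required for 50% inhibition of growth.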 Active and inactive are the calls of the source. Rule as the data show it: active = GI50 up to about 1.1 µM and inactive = higher.
Key:
Assay in all cases: growth of human tumour cells (NCI), 48 h
A549 = tested on: A549
BT-549 = tested on: BT-549
HCT-116 = tested on: HCT-116
HCT-15 = tested on: HCT-15
HOP-92 = tested on: HOP-92
HT-29 = tested on: HT-29
K562 = tested on: K562
LOX IMVI = tested on: LOX IMVI
MDA-MB-231 = tested on: MDA-MB-231
NCI-H226 = tested on: NCI-H226
NCI-H23 = tested on: NCI-H23
NCI-H460 = tested on: NCI-H460
NCI-H522 = tested on: NCI-H522
SF-539 = tested on: SF-539
SK-MEL-5 = tested on: SK-MEL-5
SN12C = tested on: SN12C
T47D = tested on: T47D
UO-31 = tested on: UO-31
HCC 2998 = tested on: HCC 2998

Row | Compound | GI50 (A549) | GI50 (BT-549) | GI50 (HCT-116) | GI50 (HCT-15) | GI50 (HOP-92) | GI50 (HT-29) | GI50 (K562) | GI50 (LOX IMVI) | GI50 (MDA-MB-231) | GI50 (NCI-H226) | GI50 (NCI-H23) | GI50 (NCI-H460) | GI50 (NCI-H522) | GI50 (SF-539) | GI50 (SK-MEL-5) | GI50 (SN12C) | GI50 (T47D) | GI50 (UO-31) | GI50 (HCC 2998)
1 | COc1cc2c3cc1Oc1cc(ccc1O)C[C@@H]1c4c(cc(OC)c(O)c4Oc4ccc(cc4)C[C@@H]3N(C)CC2)CC[N+]1(C)C | > 100 µM (inactive) | > 100 µM (inactive) | 48.4 µM (inactive) | 70.1 µM | 11.6 µM (inactive) | 46.5 µM (inactive) | 42 µM (inactive) | 17.8 µM (inactive) | 25.1 µM (inactive) | > 100 µM (inactive) | 52 µM (inactive) | 33.3 µM (inactive) | 24.9 µM (inactive) | 15.1 µM (inactive) | > 100 µM (inactive) | > 100 µM (inactive) | 23.8 µM (inactive) | > 100 µM (inactive) | 
2 | CC1NC(=O)C2Cc3ccc(O)c(c3)Oc3ccc(cc3)C(O)C(C(=O)N2C)N(C)C(=O)C(C)NC(=O)C(Cc2ccc(O)cc2)N(C)C(=O)C(C)NC1=O (centres undefined) | 41 µM (inactive) | 24.6 µM (inactive) | 9.64 µM (inactive) | > 100 µM | 15.8 µM (inactive) | 19.2 µM (inactive) | > 100 µM (inactive) | 5.43 µM (inactive) | 11.1 µM (inactive) |  | 29.2 µM (inactive) | 31.3 µM (inactive) | 9.44 µM (inactive) | 6.71 µM (inactive) | 31.6 µM (inactive) | > 10 µM (inactive) | 15.9 µM (inactive) | > 100 µM (inactive) | 22.2 µM (inactive)
3 | CC(=O)Nc1ccc(C(=O)NN2C(=O)CSC2c2ccc(O)cc2)cc1 (centres undefined) | > 100 µM (inactive) | > 100 µM (inactive) | > 100 µM (inactive) | > 100 µM | > 100 µM (inactive) | > 100 µM (inactive) | > 100 µM (inactive) |  | > 100 µM (inactive) | > 100 µM (inactive) | > 100 µM (inactive) | > 100 µM (inactive) |  | > 100 µM (inactive) | > 100 µM (inactive) | > 100 µM (inactive) | > 100 µM (inactive) | > 100 µM (inactive) | > 100 µM (inactive)
4 | CCOC(=O)CC(=O)Nc1cccc2nc[nH]c12 | > 100 µM (inactive) | > 100 µM (inactive) | > 100 µM (inactive) | > 100 µM | > 100 µM (inactive) | > 100 µM (inactive) | > 100 µM (inactive) |  | > 100 µM (inactive) | > 100 µM (inactive) | > 100 µM (inactive) | > 100 µM (inactive) |  | > 100 µM (inactive) | > 100 µM (inactive) | > 100 µM (inactive) | > 100 µM (inactive) | > 100 µM (inactive) | 

Source: ChEMBL document CHEMBL1201862, “PubChem BioAssay data set” (2004)
